Reference: US7192981B2, “3,4-dihydroxyhydrocinnamic acid derivative” (Bionutrigen Co., Ltd., priority 2005, dated 2007)

Columns and labels:
insulin receptor = molecular target: T1, insulin receptor (Rattus norvegicus, UniProt P15127); experiment: Insulin binding assay ([125I]-insulin binding to adipocytes); conditions: [125I]-insulin 0.1 ng/ml, 2 h
T1 construct: endogenous in cells; host or cells: isolated primary adipocytes (rat)
Protocol: To examine whether DHH105 binds to the insulin receptor and activates the insulin signal transduction pathway, [^125I]-insulin binding to adipocytes was measured in the presence of DHH105. Isolated adipocytes were incubated in KRH buffer for 1 h to remove residual insulin. Adipocytes were then washed three times and resuspended in KRH buffer. Adipocytes (2×10^5 cells/vial) were incubated with DHH105 or insulin in the presence of [^125I]-insulin (0.1 ng/ml; Perkin-Elmer Life and Analytical Sciences, Downers Grove, Ill.) for 2 h at 16° C. in a shaking bath. To measure non-specific binding, 50 μg of unlabelled insulin (Sigma) were added to cells along with [^125I]-insulin. After incubation, adipocytes were harvested by silicon oil and the radioactivity was measured.

[1] = Body weight and gross liver observation in DHH105-treated mice; format: in vivo, mouse
Protocol: First, the effect of DHH105 on the non-fasting blood glucose level in ob/ob mice, an animal model of type 2 diabetes, was examined in vivo. […] DHH105 was dissolved in DMSO and emulsified in olive oil (1:50 v/v). DHH105, at a dose of 150 mg/kg body weight (b.w.) in 100 μl, was injected intraperitoneally (i.p.) every day into diabetic ob/ob mice (blood glucose level>230 mg/dl) and STZ-treated diabetic C57BL/6 mice (blood glucose level>300 mg/dl). Control mice received the same amount of olive oil without DHH105. Blood glucose levels were measured with a glucometer (One Touch Ultra, Lifescan, Milpitas, Calif.) every morning between 9:00–10:00 a.m. just before injection of DHH105.

Akt/PKB = Akt/PKB phosphorylation in adipocytes, western blot; format: cell-based, rat; conditions: 500 μM, 4 h
Protocol: Proteins were separated by 10% SDS-PAGE and transferred to a polyvinyl difluoride membrane (Amersham Pharmacia Biotech). After transfer, the membranes were blocked with 5% skim milk in Tris-buffered saline with Tween 20 (TBST; 0.05% Tween 20, 200 mM Tris-HCl, 500 mM NaCl, pH 7.5) for 1 h at room temperature. The membranes were incubated with anti-IR-β, anti-IRS-1, anti-phosphotyrosine, or anti-p85 PI3-kinase (Upstate Biotech); anti-Akt/PKB or anti-phospho-Akt/PKB (Cell Signalling Technology, Beverly, Mass.); anti-GLUT4 (Santa Cruz Biotechnology Inc., Santa Cruz, Calif.); or anti-β actin (Sigma) antibody in 5% bovine serum albumin in TBST for 1 h at room temperature or overnight at 4° C. After washing, the membranes were incubated with secondary antibodies labeled with horseradish peroxidase (HRP) in 5% skim milk in TBST for 1 h. The membranes were washed and the immunoreactive proteins were detected with an enhanced chemoluminescence western blot detection kit (Amersham Pharmacia Biotech).

IR-β = molecular target: T2, IR-β (Mus musculus, UniProt P15208); experiment: Phosphorylation of IR-β in adipose tissue of treated diabetic mice; format: in vivo; conditions: 2 weeks of DHH105 treatment
T2 construct: from tissue; host or cells: fat (adipose) tissue of STZ-induced diabetic C57BL/6 mice and ob/ob mice
Protocol: Adipocytes treated with DHH105 for 2 h or insulin for 10 min were homogenized in 5 ml lysis buffer (20 mM Tris, pH 7.4, 1% SDS, 10% glycerol, 150 mM NaCl, 2 mM EDTA, 20 mM NaF, 1 mM NaVO4, 2 mM sodium pyrophosphate, protease inhibitor cocktail, and phosphatase inhibitor cocktail) with a teflon pestle (15 strokes). Homogenized adipocytes were sonicated for 3 min and solubilized for 30 min. The homogenate was centrifuged at 3,000 g for 10 min at 4° C. The protein concentration of the lysate was determined by the Bradford method. After dilution (1 μg/μl protein concentration), the lysates were incubated with anti-insulin receptor-β (IR-β) antibody (Upstate Biotech, Charlottesville, Va.) or anti-IRS-1 antibody (Upstate Biotech) overnight at 4° C. Protein A Sepharose beads (100 μl, Amersham Pharmacia Biotech) were added and the mixture was gently rocked for 2 h at 4° C. […] The membranes were washed and the immunoreactive proteins were detected with an enhanced chemoluminescence western blot detection kit (Amersham Pharmacia Biotech). To examine whether in vivo treatment of STZ-induced diabetic C57BL/6 mice or ob/ob mice with DHH105 also increases phosphorylation of IR-β, and IRS-1, fat tissue was removed from the mice after 2 weeks of DHH105 treatment and phosphorylation of IR-β and IRS-1 was measured by immunoprecipitation and western blot.

T2 sequence (P15208 753-1372 limits assumed): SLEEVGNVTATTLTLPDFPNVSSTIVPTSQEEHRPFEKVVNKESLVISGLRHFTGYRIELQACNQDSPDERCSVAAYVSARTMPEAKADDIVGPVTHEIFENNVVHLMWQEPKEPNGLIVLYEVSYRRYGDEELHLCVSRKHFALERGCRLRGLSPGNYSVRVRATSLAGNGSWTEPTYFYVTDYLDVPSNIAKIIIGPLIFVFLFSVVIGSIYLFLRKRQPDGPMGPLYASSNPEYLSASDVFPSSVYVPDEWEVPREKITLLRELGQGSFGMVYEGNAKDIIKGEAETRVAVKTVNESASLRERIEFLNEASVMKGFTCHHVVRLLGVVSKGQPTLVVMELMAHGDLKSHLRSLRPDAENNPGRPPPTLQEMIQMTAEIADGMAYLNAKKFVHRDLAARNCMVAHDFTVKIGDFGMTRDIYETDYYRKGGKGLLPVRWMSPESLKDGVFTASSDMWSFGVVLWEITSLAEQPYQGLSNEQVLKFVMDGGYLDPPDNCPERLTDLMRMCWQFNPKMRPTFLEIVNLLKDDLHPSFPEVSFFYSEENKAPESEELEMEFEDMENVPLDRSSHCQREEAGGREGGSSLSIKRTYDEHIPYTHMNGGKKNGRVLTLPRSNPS
T2 sequence (P15208 28-748 limits assumed): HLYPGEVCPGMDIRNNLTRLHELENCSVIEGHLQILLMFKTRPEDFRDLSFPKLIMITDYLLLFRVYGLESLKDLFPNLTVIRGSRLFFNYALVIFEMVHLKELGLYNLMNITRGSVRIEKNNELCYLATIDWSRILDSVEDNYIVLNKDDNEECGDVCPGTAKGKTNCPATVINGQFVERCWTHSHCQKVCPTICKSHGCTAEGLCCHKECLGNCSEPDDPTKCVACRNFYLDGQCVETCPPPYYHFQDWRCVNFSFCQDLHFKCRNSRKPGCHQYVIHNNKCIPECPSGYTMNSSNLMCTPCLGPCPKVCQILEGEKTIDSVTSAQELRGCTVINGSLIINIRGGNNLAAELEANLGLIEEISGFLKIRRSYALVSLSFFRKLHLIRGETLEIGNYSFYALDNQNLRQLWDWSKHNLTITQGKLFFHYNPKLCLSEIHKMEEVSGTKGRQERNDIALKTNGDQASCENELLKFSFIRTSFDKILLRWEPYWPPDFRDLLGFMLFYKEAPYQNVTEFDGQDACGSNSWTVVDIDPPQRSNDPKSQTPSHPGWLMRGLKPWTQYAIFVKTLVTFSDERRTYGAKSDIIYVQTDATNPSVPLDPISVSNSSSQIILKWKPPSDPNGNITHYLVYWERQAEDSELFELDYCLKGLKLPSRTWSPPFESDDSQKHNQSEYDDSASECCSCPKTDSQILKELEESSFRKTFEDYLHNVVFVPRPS
T1 sequence (P15127 27-759 limits assumed): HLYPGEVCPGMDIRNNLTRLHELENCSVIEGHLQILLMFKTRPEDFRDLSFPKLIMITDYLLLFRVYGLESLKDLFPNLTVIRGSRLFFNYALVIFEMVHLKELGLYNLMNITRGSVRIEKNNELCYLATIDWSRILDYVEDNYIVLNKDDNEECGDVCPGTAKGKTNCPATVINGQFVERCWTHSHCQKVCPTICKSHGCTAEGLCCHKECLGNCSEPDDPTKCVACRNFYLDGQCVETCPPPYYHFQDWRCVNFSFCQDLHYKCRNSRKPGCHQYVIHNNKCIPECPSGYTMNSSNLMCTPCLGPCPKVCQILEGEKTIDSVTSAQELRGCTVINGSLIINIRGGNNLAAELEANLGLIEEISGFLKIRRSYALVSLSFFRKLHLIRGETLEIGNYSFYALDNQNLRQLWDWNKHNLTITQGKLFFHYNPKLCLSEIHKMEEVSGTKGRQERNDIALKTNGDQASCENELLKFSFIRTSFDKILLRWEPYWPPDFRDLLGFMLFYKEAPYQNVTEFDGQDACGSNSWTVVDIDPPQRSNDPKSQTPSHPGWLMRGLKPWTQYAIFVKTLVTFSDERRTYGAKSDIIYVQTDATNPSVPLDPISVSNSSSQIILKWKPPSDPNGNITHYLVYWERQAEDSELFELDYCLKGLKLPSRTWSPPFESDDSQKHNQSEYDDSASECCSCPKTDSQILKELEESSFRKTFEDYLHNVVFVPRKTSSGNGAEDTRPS
T1 sequence (P15127 764-1383 partner limits assumed): as the sequence (P15208 753-1372 limits assumed) above, with L13P, V21I, V26A, Q30H, D69E, C72S, S73G, A288V, G580C counted along it

binding of [125I]-insulin to adipocytes, DHH105 together with insulin (insulin receptor; 500 μM DHH105 plus insulin): further inhibited
binding of [125I]-insulin to adipocytes (insulin receptor; 16° C.): inhibited
phosphorylation of IR-β in adipose tissue (IR-β; STZ-induced diabetic C57BL/6 mice): increased
phosphorylation of IR-β in adipose tissue (IR-β; ob/ob mice): increased
SMILES: O=C(CCc1ccc(O)c(O)c1)OCc1cccc2ccccc12 [DHH105, 3,4-dihydroxyhydrocinnamic acid naphthalene methyl ester]
gross lesions of the liver ([1]; DHH105-treated mice): no gross lesions
body weight, treated vs untreated mice ([1]; DHH105-treated vs untreated mice): no differences
amount of Akt/PKB protein (Akt/PKB): did not change
phosphorylated Akt/PKB (Akt/PKB; vs untreated control): significantly increased
